Test results as given in patent publication US12178809B2, “Pyridinyl sulfonamide derivatives, pharmaceutical compositions and uses thereof” (Boehringer Ingelheim International GmbH, priority 2018, dated 2024).
Where a name gives a salt, the structure may show the parent alone. Read-outs that look alike come from different tables or passages of the source.

Tests used:
AOC1 = AOC1 (Homo sapiens (Human), UniProt P19801); test: AOC1 biochemical assay (Amplex Red)
Experimental: The Amplex® Red Assay (available from Thermo Fisher Scientific) provides a sensitive method for the detection of H2O2 generated during enzymatic reactions like the amine oxidation catalyzed by AOC1. The assay reagent is a colorless substrate (N-acetyl-3,7-dihydroxyphenoxazine) that reacts in a 1:1 stoichiometry with hydrogen peroxide (H2O2) to produce the fluorescent dye resorufin (7-hydroxyphenoxazin-3-one, excitation/emission maxima=570/585 nm).
An aliquot of 3 μL of the compound dilution is added to a 384 well plate (Optiplate, PS, flat bottom F, black, PERKIN ELMER, #6007270) in a DMSO concentration of 6.6%.
An AOC1 enzyme aliquot (#8297-AO-010, R&D Systems) is thawed on ice, diluted in reaction buffer and added in a volume of 7 μL to the wells to give a final assay concentration of 1 ng/well. After incubation of inhibitor and enzyme for 30 minutes at 37° C., the enzymatic reaction is started with the addition of 10 μL of Amplex® Red reaction mix (final assay concentration: 100 mM sodiumphosphate, 120 μM Amplex® Red reagent (#A22177 Molecular Probes), 1.5 U/mL Horseradish Peroxidase (#P8375 Sigma-Aldrich), 200 μM putrescine (#P7505 Sigma-Alrdich), 0.05% Pluronic F-127 (#P3000MP Sigma-Aldrich), pH 7.4, 37° C.).
After an incubation for 30 minutes at 37° C. the turnover of the substrate is determined directly (or after the addition of an excess of an amine-oxidase inhibitor) with a fluorescence reader (Ex 540 nm/Em 590 nm) like Envision 2104 Multilabel Reader (PERKIN ELMER).

human AOC3 enzyme = human AOC3 enzyme (Homo sapiens (Human), UniProt Q16853); test: AOC3 biochemical assay (MAO-Glo)
Description: The MAO-Glo™ Assay (commercially available from PROMEGA, #V1402) provides a sensitive method for the measurement of monoamine oxidase (MAO) activity (Valley, M. P. et al., 2006, Anal. Biochem. 359: 238-246) from a variety of tissues, biofluids or recombinant expressed or purified enzymes. As substrate a derivate of the beetle luciferin ((4S)-4,5-dihydro-2-(6-hydroxybenzothiazolyl)-4-thiazole-carboxylic acid) is used, which is oxidized at a primary amine moiety. After a spontaneous elimination and a catalyzed esterase reaction, the turnover of the luciferine by the luciferase is recorded as a signal of AOC3 activity.
An aliquot of 3 μL of the compound dilution is added to a 384 well plate (Optiplate, PS, flat bottom, white, PERKIN ELMER, #6007290) with a final DMSO concentration of 6.6%. Recombinant CHO cells, overexpressing the human (1500 cells/well), mouse (1000 cells/well) or rat (500 cells/well) AOC3 enzyme are diluted in reaction buffer and added in a volume of 15 μL to the wells. After incubation for 20 minutes at 37° C., 2 μL of MAO substrate (dissolved in DMSO at 16 mM, adjusted to assay concentration in reaction buffer to a final assay concentration of 20 μM) is added and further incubated for 60 minutes at 37° C. The turnover of the substrate is determined by the addition of 20 μL of the detection-mix which was generated by the addition of reconstitution buffer with esterase (PROMEGA, #V1402) to the luciferine detection reagent (PROMEGA, #V1402). After an incubation period of 20 minutes, the luminescent signal is measured with Envision 2104 Multilabel Reader (PERKIN ELMER).

AOC2 = AOC2 (Homo sapiens (Human), UniProt O75106); test: AOC2 biochemical assay (Amplex Red)
Experimental: An aliquot of 5 μL of the compound dilution is added to a 96 well plate (flat bottom F, black, GREINER bio-one, #655900) in a DMSO concentration of 2%. […] Cells are cultured for 3 days in EMEM culture medium containing 10% FCS (#04-00-1A, Biological Industries). After washing twice with ice cold PBS, cells are lysed by mechanic homogenation and cleared supernatants are shock frozen in liquid nitrogen and stored at -80° C. […] An Aliquot of 45 μL is added to the compound dilution and incubated for 30 min at 37° C. The enzymatic reaction is started with the addition of 50 μL of Amplex® Red reaction mix (final assay concentration: 100 mM sodiumphosphate, 120 μM Amplex® Red reagent (#A22177 Molecular Probes), 1.5 U/mL Horseradish Peroxidase (#P8375 Sigma-Aldrich), 2 mM phenylethylamine (#[…] Sigma-Aldrich), 0.05% Pluronic F-127 (#P3000MP Sigma-Aldrich), pH 7.4, 37° C.). The turnover per time of the substrate is determined directly with a fluorescence reader (Ex 540 nm/Em 590 nm) like Envision 2104 Multilabel Reader (PERKIN ELMER) for 60 min.

Sequence of AOC1 (P19801 20-751): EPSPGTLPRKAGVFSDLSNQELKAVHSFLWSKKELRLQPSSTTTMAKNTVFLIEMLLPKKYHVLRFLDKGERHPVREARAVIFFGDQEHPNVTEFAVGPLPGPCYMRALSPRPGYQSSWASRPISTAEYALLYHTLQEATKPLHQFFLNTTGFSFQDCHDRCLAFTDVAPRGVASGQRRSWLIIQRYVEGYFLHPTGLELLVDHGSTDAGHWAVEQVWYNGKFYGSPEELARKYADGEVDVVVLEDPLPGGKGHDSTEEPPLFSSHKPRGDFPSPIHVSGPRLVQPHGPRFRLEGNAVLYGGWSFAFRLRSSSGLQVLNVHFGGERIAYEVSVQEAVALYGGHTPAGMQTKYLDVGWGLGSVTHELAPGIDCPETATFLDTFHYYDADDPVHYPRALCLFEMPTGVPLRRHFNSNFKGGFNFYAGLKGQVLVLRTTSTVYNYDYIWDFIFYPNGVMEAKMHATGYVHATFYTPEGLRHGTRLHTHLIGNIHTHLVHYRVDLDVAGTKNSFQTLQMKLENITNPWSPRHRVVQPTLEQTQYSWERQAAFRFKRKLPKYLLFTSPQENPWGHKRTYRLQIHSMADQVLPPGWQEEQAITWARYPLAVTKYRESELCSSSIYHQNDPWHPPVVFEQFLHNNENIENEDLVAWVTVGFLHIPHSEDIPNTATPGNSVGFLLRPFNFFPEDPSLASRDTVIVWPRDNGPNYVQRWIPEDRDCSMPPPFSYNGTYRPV
Sequence of human AOC3 enzyme (Q16853 whole entry): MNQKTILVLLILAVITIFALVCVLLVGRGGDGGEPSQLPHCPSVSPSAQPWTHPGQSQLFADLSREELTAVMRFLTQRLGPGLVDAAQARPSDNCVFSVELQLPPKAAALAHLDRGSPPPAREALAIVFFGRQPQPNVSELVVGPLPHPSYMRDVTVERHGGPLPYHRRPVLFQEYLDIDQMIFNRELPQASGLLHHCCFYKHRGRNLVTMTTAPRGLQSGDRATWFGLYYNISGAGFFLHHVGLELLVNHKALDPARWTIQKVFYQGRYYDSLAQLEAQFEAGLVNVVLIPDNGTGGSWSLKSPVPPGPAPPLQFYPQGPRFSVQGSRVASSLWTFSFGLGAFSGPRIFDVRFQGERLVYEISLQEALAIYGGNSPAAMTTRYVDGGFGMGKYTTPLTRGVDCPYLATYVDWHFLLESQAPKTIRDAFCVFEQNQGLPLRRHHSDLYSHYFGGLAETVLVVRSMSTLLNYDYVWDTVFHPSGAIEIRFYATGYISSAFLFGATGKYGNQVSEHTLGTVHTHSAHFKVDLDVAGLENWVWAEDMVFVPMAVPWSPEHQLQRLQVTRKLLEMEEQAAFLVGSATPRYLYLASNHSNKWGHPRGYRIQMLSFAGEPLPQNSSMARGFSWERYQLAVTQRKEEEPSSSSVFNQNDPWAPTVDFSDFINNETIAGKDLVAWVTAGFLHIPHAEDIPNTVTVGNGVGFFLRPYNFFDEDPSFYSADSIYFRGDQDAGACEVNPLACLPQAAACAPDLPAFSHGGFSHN
Sequence of AOC2 (O75106 whole entry): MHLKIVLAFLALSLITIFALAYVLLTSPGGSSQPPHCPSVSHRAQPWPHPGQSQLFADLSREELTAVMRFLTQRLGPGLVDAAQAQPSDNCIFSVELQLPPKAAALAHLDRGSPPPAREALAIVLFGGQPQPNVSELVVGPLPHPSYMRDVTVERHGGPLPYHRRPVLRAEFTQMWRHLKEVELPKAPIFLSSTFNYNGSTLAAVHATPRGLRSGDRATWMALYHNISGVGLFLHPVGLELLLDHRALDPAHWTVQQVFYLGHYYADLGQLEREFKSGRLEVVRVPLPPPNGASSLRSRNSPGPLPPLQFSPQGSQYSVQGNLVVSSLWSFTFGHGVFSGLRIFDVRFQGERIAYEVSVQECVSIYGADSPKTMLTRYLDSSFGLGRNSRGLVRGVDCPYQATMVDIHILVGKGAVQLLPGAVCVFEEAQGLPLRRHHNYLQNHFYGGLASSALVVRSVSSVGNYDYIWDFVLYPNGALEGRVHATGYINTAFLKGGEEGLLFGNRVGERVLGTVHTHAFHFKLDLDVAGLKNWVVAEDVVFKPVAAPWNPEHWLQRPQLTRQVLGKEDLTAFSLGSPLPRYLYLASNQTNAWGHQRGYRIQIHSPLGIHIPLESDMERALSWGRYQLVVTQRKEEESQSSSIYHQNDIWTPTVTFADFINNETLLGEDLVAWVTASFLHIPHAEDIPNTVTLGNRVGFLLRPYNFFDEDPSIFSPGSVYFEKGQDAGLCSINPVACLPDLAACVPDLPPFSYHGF

IC50 (AOC1; read-out: AOC1 IC50)	IC50 (human AOC3 enzyme; read-out: AOC3 IC50)	IC50 (AOC2; read-out: AOC2 IC50)	IC50 (AOC1; comparison table, unit μM, read-out: IC50 AOC1)	IC50 (human AOC3 enzyme; comparison table, read-out: IC50 AOC3)	fold less active against AOC2 as compared to AOC3 (ratio IC50 AOC2/IC50 AOC3) (AOC2)	IC50 (AOC2; comparison table, read-out: IC50 AOC2)	SMILES
34.7 µM	89 nM	34 nM					NC/C(=C\F)COc1ccc(S(=O)(=O)N2CCC(C(=O)O)CC2)cn1 [Example 56]
> 50 µM	2690 nM	6 nM					CC1(C(=O)O)CCN(S(=O)(=O)c2ccc(OC/C(=C/F)CN)nc2)CC1 [Example 57]
> 49.9 µM	114 nM	363 nM					CC1(C(=O)NC2CCOCC2)CCN(S(=O)(=O)c2ccc(OC/C(=C/F)CN)nc2)CC1 [Example 58, 1-[6-((E)-2-Aminomethyl-3-fluoro-allyloxy)-pyridine-3-sulfonyl]-4-methyl-piperidine-4-carboxylic acid (tetrahydropyran-4-yl)-amide trifluoroacetate]
> 50 µM	21 nM	92 nM					NC/C(=C\F)COc1ccc(S(=O)(=O)N2CCC(CC(N)=O)CC2)cn1 [Example 60]
> 50 µM	26 nM	61 nM					CC1(C(N)=O)CCN(S(=O)(=O)c2ccc(OC/C(=C/F)CN)nc2)CC1 [Example 61]
			> 50 µM	13 nM	22 fold	287 nM	COC1CN(S(=O)(=O)c2ccc(OC/C(=C/F)CN)cc2)C1 [Reference compound A, reference compound]

More lines, now with the values behind:

SMILES	IC50 (AOC1; read-out: AOC1 IC50)	IC50 (human AOC3 enzyme; read-out: AOC3 IC50)	IC50 (AOC2; read-out: AOC2 IC50)	IC50 (AOC1; comparison table, unit μM, read-out: IC50 AOC1)	IC50 (human AOC3 enzyme; comparison table, read-out: IC50 AOC3)	fold less active against AOC2 as compared to AOC3 (ratio IC50 AOC2/IC50 AOC3) (AOC2)	IC50 (AOC2; comparison table, read-out: IC50 AOC2)
NC/C(=C\F)COc1ccc(S(=O)(=O)N2CC[C@H](C(N)=O)C2)cn1 [Example 49]	> 50 µM	21 nM	50 nM				
NC/C(=C\F)COc1ccc(S(=O)(=O)N2CCC(O)(C(F)(F)F)CC2)cn1 [Example 50]	> 50 µM	20 nM	24 nM				
COC(=O)C1CCN(S(=O)(=O)c2ccc(OC/C(=C/F)CN)nc2)CC1 [Example 51, 1-[6-((E)-2-Aminomethyl-3-fluoro-allyloxy)-pyridine-3-sulfonyl]-piperidine-4-carboxylic acid methyl ester trifluoroacetate]	48 µM	13 nM	325 nM				
COC(=O)[C@H]1[C@@H]2CN(S(=O)(=O)c3ccc(OC/C(=C/F)CN)nc3)C[C@@H]21 [Example 52]	41.8 µM	9 nM	315 nM				
COC(=O)C1(C)CCN(S(=O)(=O)c2ccc(OC/C(=C/F)CN)nc2)CC1 [Example 53]	> 50 µM	15 nM	19 nM				
NC/C(=C\F)COc1ccc(S(=O)(=O)N2CCC(CC(=O)O)CC2)cn1 [Example 54, trifluoroacetate]	> 50 µM	308 nM	4 nM				
NC/C(=C\F)COc1ccc(S(=O)(=O)N2C[C@@H]3[C@H](C2)[C@H]3C(=O)O)cn1 [Example 55, trans-3-[6-((E)-2-Aminomethyl-3-fluoro-allyloxy)-pyridine-3-sulfonyl]-3-aza-bicyclo[3.1.0]hexane-6-carboxylic acid trifluoroacetate]	> 50 µM	391 nM	50 nM				
